Assays:
PC3 cells = test: Colony formation in soft agar, PC3; assay type: cell-based, human; conditions: 5 µM HB-19, PC3
Procedure: (§1) Figure 4 HB-19 inhibits colony formation in soft agar by tumor cell lines. (A) MDA-MB-231 cells in culture medium were seeded in triplicate in the absence (histogram C) or presence of 0.1, 0.5 and 1 of µM HB-19, or 0.1 µM of the anti-nucleolin mAb MS-3 or control IgG, or 10 µM bisphosphonate (BisP). (B) Various tumor cell lines (as indicated) in culture medium were seeded in triplicate in the absence (histogram Control) or presence of 5 µM HB-19. After 10–21 days, colonies with diameters greater than 50 µm were scored as positive. Statistical significance: *0.01<p<[…], **p<0.01, ***p<0.001.
(§2) Carcinoma cells (2×10^4) were mixed in 0.35% top agar, diluted in complete medium (DMEM containing 10% FBS) in the absence or presence of HB-19, and plated onto 0.8% bottom agar into 12-well plates. Cells were treated twice a week during 10 to 21 days. Colonies with diameters greater than 50 µm were scored as positive using a phase contrast microscope equipped with a measuring grid at magnification 100× [45]. The number of colonies was determined by analyzing 5 fields/well from 3 wells and the test was repeated at least twice.

[1] = tested on: CD31 endothelial marker in tumors; test: Tumor vascularization, CD31 immunohistochemistry; assay type: in vivo, mouse; conditions: CD31 staining; HB-19 5 mg/kg or 5-FU 40 mg/kg, intraperitoneal, 8 weeks; compared to untreated tumors
Procedure: Figure 9 Reduced density of blood vessels in HB-19 treated tumor-bearing mice. Sections of tumors recovered from mice, untreated control and treated with either HB-19 or 5-FU (experiment described in Figure 8B) were stained with antibodies against the CD31 endothelial marker and analyzed by fluorescence microscopy. […] Angiogenesis was quantified by image analysis of CD31-labeled endothelial cells.
Immediately after surgical resection, tumors, were frozen in liquid nitrogen and fixed for 20 min in acetone at 4°C or fixed with 4% PFA for paraffin inclusion. The sections of 8 µm were re-hydrated and saturated in PBS containing 1% BSA and 2% normal goat serum. To visualize tumor endothelial cells, sections were incubated with a Rat anti-mouse CD31 monoclonal antibody (1∶50) in saturation buffer 1 hour at room temperature. After two washes in PBS, sections were incubated for 1 hour at room temperature with biotinylated goat anti-Rat IgG (1∶1000 dilution; Chemicon International Inc., Temecula, CA) in saturation buffer, followed by three washes in PBS and incubation with the avidin-biotinylated-alkaline phosphatase complex (Vector Laboratories). […] Angiogenesis was quantified by Image analysis of CD31-labeled endothelial cells. The EC density in each field was expressed as the ratio of EC area/total area examined ×100 (%). […]

[2] = tested on: Aortic endothelial (ABAE) cells; test: Tubular network structure formation in collagen gel; assay type: cell-based, bovine
Procedure: Figure 6 Inhibition of in vitro and in vivo angiogenesis by HB-19. (A) HB-19 inhibits proliferation of HUVECs. Twenty-four hours after seeding HUVECs in 2% FBS, cells were stimulated by 0.25 nM VEGF165, in the absence or presence of 1 µM HB-19 or 0.1 µM anti-nucleolin mAb MS-3 as indicated. After 72 h, cell number was determined by crystal violet staining. The data are reported as the mean of triplicate samples. (B) HB-19 inhibits migration of HUVECs. Cell migration was studied using a modified Boyden chamber. Cells were incubated (4 h at 37°C) with VEGF165, HB-19, or anti-nucleolin mAb MS-3 as above. Cells that migrated through the pore to the lower filter surface were counted and are shown as number per microscopic field at ×100 magnification. The data are the mean of three independent high-power fields/well performed in duplicate in two independent experiments. […] Aortic endothelial (ABAE) cells in the absence or presence of 3 nM PTN, 0.5 nM VEGF165, and 3 nM FGF-2 were seeded on a three-dimensional collagen gel in complete medium. Treatment with HB-19 or anti-nucleolin mAb MS-3 was for 3 days after cell plating. Tubular network structures were quantified using phase contrast microscopy (×100). The ordinate gives the number of pseudocapillaries corresponding to the means of three randomly chosen fields/well from three wells. (D) HB-19 inhibits […] angiogenic activity of growth factors in a Matrigel plug model. Liquid Matrigel was subcutaneously injected into the flank of Swiss mice in the absence or presence of 5 nM PTN, 10 nM FGF-2, and 1 µM HB-19. Quantification of endothelial cell invasion into the Matrigel was determined and is expressed as a mean of five fields per section from 3 Matrigel-plug sections per mouse. The results are expressed as the mean of five mice per group. Statistical significance: *p<0.05, **p<0.01, ***p<0.001.
Three-dimensional collagen gels were prepared following the procedure of Montesano with minor modifications. […] Tubular network structures were then quantified using phase contrast microscopy at 100× magnification. […]

ERK1/2 = test: Serum-induced phosphorylation of ERK1/2; assay type: cell-based, human; conditions: 2, 5 and 10 µM HB-19; 5 min after 10% FBS
Procedure: Figure 5 Cell cycle perturbations induced by HB-19 treatment. (A) Analysis of cell cycle parameters in HB-19 treated cells. MDA-MB-231 cells were cultured for 48 hours in medium without FBS (starvation) or in medium containing 10% FBS supplemented or not with 10 µM HB-19. DNA synthesis was quantified after BrdU incorporation and staining with anti-BrdU antibody and 7-AAD, by FACScan analysis. The histograms indicate the relative amount of cells in G1, S and G2/M cell phases. […] Serum starved MDA-MB-231 cells were stimulated with 10% FBS in the absence or presence of 2, 5, and 10 µM of HB-19. Five minutes after serum stimulation, cells were lysed directly in electrophoresis sample buffer and processed for immunoblotting using anti-phospho-p42/44 ERK1/2 and anti-p42/44 ERK antibodies. NS stands for non-stimulated cells.

MDA-MB-231 cells [3] = test: Colony formation in soft agar, MDA-MB-231; assay type: cell-based, human
Procedure: as §1, §2

MDA-MB-231 cells [4] = test: HB-19 entry in MDA-MB-231 cells, immunofluorescence; assay type: cell-based, human; conditions: 5 µM HB-19/Btn, 1 hour
B16 cells = test: Colony formation in soft agar, B16; assay type: cell-based, mouse; conditions: 5 µM HB-19, B16
Procedure: as §1, §2

pseudo-tripeptide Lysψ(CH2N)-Pro-Arg coupled to a template (H2NLys-Lys-Lys-Gly-Pro-Lys-Glu-Lys-AhxCONH2) [HB-19, pseudopeptide presenting pentavalently the pseudo-tripeptide Lysψ(CH2N)-Pro-Arg coupled to a template]
colony formation (PC3 cells): reduced markedly
inhibition of tumor vascularization [1]: significantly inhibited tumor vascularization
capillary-like structure formation, VEGF induced ([2]; 0.5 nM VEGF165, treatment 3 days): inhibited formation of capillary-like branched structures
tubular network formation, FGF-2 induced ([2]; 3 nM FGF-2, treatment 3 days): inhibits tubular network structure formation in collagen
capillary-like structure formation, PTN induced ([2]; 3 nM PTN, treatment 3 days): inhibited formation of capillary-like branched structures
serum-stimulated ERK1/ERK2 phosphorylation (ERK1/2): prevents enhanced phosphorylation of ERK1/ERK2
reduction of colony-forming capacity (MDA-MB-231 cells [3]; 1 µM HB-19, triplicate, colonies >50 µm, 10–21 days): 50%
colony formation (MDA-MB-231 cells [3]; 5 µM HB-19, MDA-MB-231): reduced markedly
reduction of colony-forming capacity (MDA-MB-231 cells [3]; HB-19 0.1, 0.5 and 1 µM, anti-nucleolin mAb MS-3 0.1 µM): reduced significantly
internalization and subcellular localization (MDA-MB-231 cells [4]; 37°C): internalized and is concentrated in the cytoplasm without translocation into the nucleus
internalization at 20°C (MDA-MB-231 cells [4]; 20°C): remains attached to the cell surface without entering the cytoplasm
colony formation (B16 cells): reduced markedly

From article PMC2424174, “Suppression of Tumor Growth and Angiogenesis by a Specific Antagonist of the Cell-Surface Expressed Nucleolin” (PLoS ONE, 2008)
